Reference: PubChem BioAssay (NCI)
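Compound exposure: 48 hours, 5 concentrations, 96-well plates. TGI: concentration producing complete growth inhibition.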

How the values were obtained:
Test in all cases: growth of human tumour cells (NCI), 48 h
NCI-H460 lung = system: NCI-H460 lung
SF-268 CNS = system: SF-268 CNS
SNB-75 CNS = system: SNB-75 CNS
UO-31 renal = system: UO-31 renal
MALME-3M melanoma = system: MALME-3M melanoma
NCI-H226 lung = system: NCI-H226 lung
HCT-116 colon = system: HCT-116 colon
KM12 colon = system: KM12 colon
EKVX NSCLC = system: EKVX NSCLC
DLD-1 colon = system: DLD-1 colon
UACC-257 melanoma = system: UACC-257 melanoma
M19-MEL melanoma = system: M19-MEL melanoma
SK-OV-3 ovarian = system: SK-OV-3 ovarian
SF-539 CNS = system: SF-539 CNS
M14 melanoma = system: M14 melanoma
HOP-18 NSCLC = system: HOP-18 NSCLC
DMS 273 small cell lung = system: DMS 273 small cell lung
K-562 leukemia = system: K-562 leukemia
CAKI-1 renal = system: CAKI-1 renal
A498 renal = system: A498 renal
HL-60(TB) leukemia = system: HL-60(TB) leukemia
KM20L2 colon = system: KM20L2 colon
SW-620 colon = system: SW-620 colon
ACHN renal = system: ACHN renal
CCRF-CEM leukemia = system: CCRF-CEM leukemia
A549 NSCLC = system: A549 NSCLC
U251 CNS = system: U251 CNS
TK-10 renal = system: TK-10 renal
HCT-15 colon = system: HCT-15 colon
IGROV1 ovarian = system: IGROV1 ovarian
OVCAR-8 ovarian = system: OVCAR-8 ovarian
SNB-78 CNS = system: SNB-78 CNS
SK-MEL-5 melanoma = system: SK-MEL-5 melanoma
786-0 renal = system: 786-0 renal
HOP-62 NSCLC = system: HOP-62 NSCLC
SK-MEL-28 melanoma = system: SK-MEL-28 melanoma
HT29 colon = system: HT29 colon
OVCAR-4 ovarian = system: OVCAR-4 ovarian
COLO 205 colon = system: COLO 205 colon
RPMI-8226 leukemia = system: RPMI-8226 leukemia
OVCAR-5 ovarian = system: OVCAR-5 ovarian
UACC-62 melanoma = system: UACC-62 melanoma
RXF-631 renal = system: RXF-631 renal
LXFL 529 NSCLC = system: LXFL 529 NSCLC
HCC-2998 colon = system: HCC-2998 colon
SN12C renal = system: SN12C renal
SNB-19 CNS = system: SNB-19 CNS
SF-295 CNS = system: SF-295 CNS
NCI-H23 lung = system: NCI-H23 lung
NCI-H522 lung = system: NCI-H522 lung
DMS 114 small cell lung = system: DMS 114 small cell lung
HOP-92 NSCLC = system: HOP-92 NSCLC
OVCAR-3 ovarian = system: OVCAR-3 ovarian
SK-MEL-2 melanoma = system: SK-MEL-2 melanoma
MOLT-4 leukemia = system: MOLT-4 leukemia
RXF 393 renal = system: RXF 393 renal
LOX IMVI melanoma = system: LOX IMVI melanoma

O=C(/C=C/c1ccc(Cl)c(Cl)c1)c1cccc2ccccc12
TGI (NCI-H460 lung): 19.3 µM
TGI (SF-268 CNS): 14.2 µM
TGI (SNB-75 CNS): 14 µM
TGI (UO-31 renal): 33.8 µM
TGI (MALME-3M melanoma): 32.4 µM
TGI (NCI-H226 lung): 28.3 µM
TGI (HCT-116 colon): 15.2 µM
TGI (KM12 colon): 16.3 µM
TGI (EKVX NSCLC): 32.5 µM
TGI (DLD-1 colon): 11.4 µM
TGI (UACC-257 melanoma): 29.5 µM
TGI (M19-MEL melanoma): 24.6 µM
TGI (SK-OV-3 ovarian): 35.2 µM
TGI (SF-539 CNS): 7.14 µM
TGI (M14 melanoma): 30.9 µM
TGI (HOP-18 NSCLC): 31.1 µM
TGI (DMS 273 small cell lung): 14.7 µM
TGI (K-562 leukemia): 11.2 µM
TGI (CAKI-1 renal): 20.4 µM
TGI (A498 renal): 38 µM
TGI (HL-60(TB) leukemia): 7.21 µM
TGI (KM20L2 colon): 17.7 µM
TGI (SW-620 colon): 3.08 µM
TGI (ACHN renal): 30 µM
TGI (CCRF-CEM leukemia): 7.18 µM
TGI (A549 NSCLC): 45.2 µM
TGI (U251 CNS): 6.89 µM
TGI (TK-10 renal): 30.5 µM
TGI (HCT-15 colon): 7.12 µM
TGI (IGROV1 ovarian): 24.8 µM
TGI (OVCAR-8 ovarian): 4.74 µM
TGI (SNB-78 CNS): 26.8 µM
TGI (SK-MEL-5 melanoma): 34.7 µM
TGI (786-0 renal): 13.2 µM
TGI (HOP-62 NSCLC): 31.4 µM
TGI (SK-MEL-28 melanoma): 33.5 µM
TGI (HT29 colon): 12.1 µM
TGI (OVCAR-4 ovarian): 20.7 µM
TGI (COLO 205 colon): 26.2 µM
TGI (RPMI-8226 leukemia): 8.53 µM
TGI (OVCAR-5 ovarian): 26.9 µM
TGI (UACC-62 melanoma): 25.5 µM
TGI (RXF-631 renal): 33.1 µM
TGI (LXFL 529 NSCLC): 6.64 µM
TGI (HCC-2998 colon): 22.4 µM
TGI (SN12C renal): 31.8 µM
TGI (SNB-19 CNS): 19.4 µM
TGI (SF-295 CNS): 24.5 µM
TGI (NCI-H23 lung): 22.5 µM
TGI (NCI-H522 lung): 10 µM
TGI (DMS 114 small cell lung): 9.51 µM
TGI (HOP-92 NSCLC): 31.4 µM
TGI (OVCAR-3 ovarian): 18.6 µM

Cc1cc2c(c(C(N)=O)c1C)-c1cc(Cl)cc(Cl)c1C2=O
TGI (NCI-H460 lung): > 100 µM
TGI (SF-268 CNS): > 100 µM
TGI (SNB-75 CNS): 45.6 µM
TGI (UO-31 renal): > 100 µM
TGI (MALME-3M melanoma): > 100 µM
TGI (HCT-116 colon): > 100 µM
TGI (KM12 colon): > 100 µM
TGI (EKVX NSCLC): > 100 µM
TGI (SK-MEL-2 melanoma): > 100 µM
TGI (DLD-1 colon): > 100 µM
TGI (UACC-257 melanoma): > 100 µM
TGI (M19-MEL melanoma): > 100 µM
TGI (SK-OV-3 ovarian): > 100 µM
TGI (SF-539 CNS): > 100 µM
TGI (M14 melanoma): > 100 µM
TGI (HOP-18 NSCLC): > 100 µM
TGI (DMS 273 small cell lung): > 100 µM
TGI (K-562 leukemia): > 100 µM
TGI (MOLT-4 leukemia): > 100 µM
TGI (A498 renal): > 100 µM
TGI (HL-60(TB) leukemia): > 100 µM
TGI (KM20L2 colon): > 100 µM
TGI (RXF 393 renal): > 100 µM
TGI (ACHN renal): > 100 µM
TGI (CCRF-CEM leukemia): > 100 µM
TGI (U251 CNS): > 100 µM
TGI (TK-10 renal): > 100 µM
TGI (HCT-15 colon): > 100 µM
TGI (IGROV1 ovarian): > 100 µM
TGI (OVCAR-8 ovarian): > 100 µM
TGI (SNB-78 CNS): > 100 µM
TGI (786-0 renal): > 100 µM
TGI (HOP-62 NSCLC): > 100 µM
TGI (SK-MEL-28 melanoma): > 100 µM
TGI (HT29 colon): > 100 µM
TGI (OVCAR-4 ovarian): > 100 µM
TGI (COLO 205 colon): > 100 µM
TGI (RPMI-8226 leukemia): > 100 µM
TGI (OVCAR-5 ovarian): > 100 µM
TGI (UACC-62 melanoma): > 100 µM
TGI (LXFL 529 NSCLC): > 100 µM
TGI (HCC-2998 colon): > 100 µM
TGI (SN12C renal): > 100 µM
TGI (SNB-19 CNS): > 100 µM
TGI (SF-295 CNS): > 100 µM
TGI (NCI-H23 lung): > 100 µM
TGI (NCI-H522 lung): > 100 µM
TGI (DMS 114 small cell lung): > 100 µM
TGI (LOX IMVI melanoma): > 100 µM
TGI (HOP-92 NSCLC): > 100 µM
TGI (OVCAR-3 ovarian): > 100 µM
